Test results from patent publication US8815921B2, “Active substance combination based on trifluorobutinyl compounds and exhibiting nematicidal and insecticidal properties” (priority 2003, dated 2014).
Several values for one entry are separate records, joined by “and”; a condition that tells them apart may be missing. Equal values may be shown once.

Key:
Type in all cases: in vivo
[1] = tested on: larvae of the mustard beetle (Phaedon cochleariae); assay: Phaedon-Larvae Test; details: cabbage leaf dip
Procedure: (§1) To produce a suitable preparation of active compound, 1 part by weight of active compound is mixed with the stated amounts of solvent and emulsifier, and the concentrate is diluted with emulsifier containing water to the desired concentration.
(§2) Cabbage leaves (Brassica oleracea) are treated by being dipped into the preparation of active compound of the desired concentration and are populated with larvae of the mustard beetle (Phaedon cochleariae) while the leaves are still moist. After the desired period of time, the kill in percent is determined. 100% means that all beetle larvae have been killed; 0% means that none of the beetle larvae has been killed. The kill rates determined are inserted into Colby's formula (see sheet 34).

[2] = tested on: caterpillars of the diamondback moth (Plutella xylostella, sensitive strain); assay: Plutella Test, sensitive strain; details: for Kill rate [%] after 6 days: 20 ppm
Procedure: as §1
as §2, with “caterpillars” for “larvae”, “diamondback moth (Plutella xylostella, sensitive strain)” for “mustard beetle (Phaedon cochleariae)”, “caterpillars” for “beetle larvae”

[3] = tested on: caterpillars of the army worm (Spodoptera frugiperda); assay: Spodoptera frugiperda Test
Procedure: as §1
as §2, with “caterpillars” for “larvae”, “army worm (Spodoptera frugiperda)” for “mustard beetle (Phaedon cochleariae)”, “caterpillars” for “beetle larvae”

[4] = tested on: green peach aphid (Myzus persicae); assay: Myzus Test
Procedure: as §1
Cabbage leaves (Brassica oleracea), which are heavily infested by the green peach aphid (Myzus persicae) are treated by being dipped into the preparation of active compound of the desired concentration. After the desired period of time, the kill in % is determined. 100% means that all aphids have been killed; 0% means that none of the aphids has been killed. The kill rates determined are inserted into Colby's formula (see sheet 1).

In the case of `O=[N+]([O-])NC1=NCCN1Cc1ccc(Cl)nc1` [imidacloprid], the “Kill rate [%] after 3 days” value ([1]; 20 ppm) is reported as 45% and the “Kill rate [%] after 6 days” value [2] is reported as 5%.
For `N#Cc1nn(-c2c(Cl)cc(C(F)(F)F)cc2Cl)c(N)c1[S+]([O-])C(F)(F)F` (stereo not drawn) [fipronil], the “Kill rate [%] after 6 days” value ([3]; 0.8 ppm) was 0%.
In the case of `CCOC(=O)OC1=C(c2cc(C)ccc2C)C(=O)NC12CCC(OC)CC2` (stereo not drawn) [(IIA), carboxylic acid, 3-(2,5-dimethylphenyl)-8-methoxy-2-oxo-1-azaspiro[4.5]dec-3-en-4-yl ethyl ester, (9Cl)], the “Kill rate [%] after 3 days” value ([2]; 4 ppm) is reported as 95%, the “Kill rate [%] after 6 days” value ([3]; 100 ppm) is reported as 30% and the “Kill rate [%] after 6 days” value ([4]; 4 ppm) is reported as 55%.
In the case of `CN/C(=N\[N+](=O)[O-])NCc1cnc(Cl)s1` [clothianidin], the “Kill rate [%] after 3 days” value ([1]; 4 ppm) is reported as 15% and the “Kill rate [%] after 3 days” value ([3]; 4 ppm) is reported as 85%.
In the case of `Cc1c(F)c(F)c(COC(=O)[C@@H]2[C@H](/C=C(\Cl)C(F)(F)F)C2(C)C)c(F)c1F` (racemic) [tefluthrin], the “Kill rate [%] after 3 days” value ([1]; 4 ppm) is reported as 75%, the “Kill rate [%] after 3 days” value ([2]; 0.16 ppm) is reported as 20% and the “Kill rate [%] after 3 days” value ([3]; 0.8 ppm) is reported as 40%. For the same molecule, the “Kill rate [%] after 1 day” value ([4]; 4 ppm) was 0%.
In the case of spinosad, the “Kill rate [%] after 3 days” value ([3]; 0.16 ppm) is reported as 60%.
With `O=S(=O)(CCC(F)=C(F)F)c1ncc(Cl)s1` [(IC)] the “Kill rate [%] after 3 days” value ([1]; 500 ppm) was 0%, the “Kill rate [%] after 3 days” value ([2]; 500 ppm, cabbage leaf dip) was 0% and 5% and the “Kill rate [%] after 3 days” value ([3]; 500 ppm, cabbage leaf dip) was 0%. The “Kill rate [%] after 6 days” value ([3]; 500 ppm) was 20%, the “Kill rate [%] after 1 day” value ([4]; 100 ppm, cabbage leaf dip) was 0% and the “Kill rate [%] after 6 days” value ([4]; 100 ppm) was 0%.
`CCOP(=S)(Oc1cnc(C(C)(C)C)nc1)OC(C)C` (stereo not drawn) [tebupirimfos] was tested, and the “Kill rate [%] after 3 days” value ([2]; 0.8 ppm) was 0%, the “Kill rate [%] after 6 days” value ([3]; 0.8 ppm) was 0% and the “Kill rate [%] after 6 days” value ([4]; 20 ppm) was 35%.
`CNC(=O)O/N=C/C(C)(C)SC` [aldicarb] was tested, and the “Kill rate [%] after 3 days” value ([1]; 20 ppm) was 35% and the “Kill rate [%] after 6 days” value [2] was 0%.
